Each structure is given as a SMILES string. The source made the active and inactive calls. No rule for the calls is given here.

Results on 55 compounds are retold here after ChEMBL document CHEMBL3987221, “The Australian National University Dept Of Immunology Pathogen Box Compounds Screened” (2018).

Test [1] concerns the target T1, Porphobilinogen deaminase (Homo sapiens) (UniProt P08397).
T1 sequence (whole entry): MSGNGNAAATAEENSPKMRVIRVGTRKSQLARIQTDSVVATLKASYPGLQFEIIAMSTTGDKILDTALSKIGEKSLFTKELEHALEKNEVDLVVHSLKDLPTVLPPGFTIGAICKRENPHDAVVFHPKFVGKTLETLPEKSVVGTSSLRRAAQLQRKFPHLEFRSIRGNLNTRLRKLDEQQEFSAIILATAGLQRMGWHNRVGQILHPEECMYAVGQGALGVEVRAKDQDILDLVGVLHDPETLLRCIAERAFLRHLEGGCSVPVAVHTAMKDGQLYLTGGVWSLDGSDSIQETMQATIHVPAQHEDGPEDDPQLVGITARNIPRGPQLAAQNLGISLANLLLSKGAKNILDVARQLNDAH
The conditions noted are these: at 100 µM.
Description: Compound was evaluated for the inhibition of human HMBS at 100uM

Test [2] addresses T2, Ferrochelatase, mitochondrial (Homo sapiens) (UniProt P22830).
T2 sequence (whole entry): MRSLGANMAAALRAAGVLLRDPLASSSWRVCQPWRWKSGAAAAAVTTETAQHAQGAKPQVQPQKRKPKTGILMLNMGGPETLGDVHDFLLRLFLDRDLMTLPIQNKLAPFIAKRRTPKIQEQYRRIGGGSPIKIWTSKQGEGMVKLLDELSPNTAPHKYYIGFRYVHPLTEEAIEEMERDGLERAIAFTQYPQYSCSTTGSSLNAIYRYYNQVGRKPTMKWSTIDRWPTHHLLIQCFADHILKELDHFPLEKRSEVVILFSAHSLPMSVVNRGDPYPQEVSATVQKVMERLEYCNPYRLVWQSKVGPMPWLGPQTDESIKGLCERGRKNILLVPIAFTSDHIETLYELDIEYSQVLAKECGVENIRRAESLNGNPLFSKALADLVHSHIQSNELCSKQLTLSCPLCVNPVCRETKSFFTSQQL
The conditions noted are these: at 10 µM.
Description: Compound was evaluated for the inhibition of human FECH at 10uM

On to `O=C(NCc1ccoc1)N1CCN(Cc2ccc3c(c2)OCO3)CC1`, for which the inhibition result in test [1] and in test [2] was “inactive” in each case.

`CC(C)=CCC/C(C)=C\CNCCNC1C2CC3CC(C2)CC1C3` (stereo not given): the inhibition entry in test [1] and in test [2] was “inactive” in each case.

Turning to `COc1ccc(S(=O)(=O)Nc2ccc(CN3CCN(C(=O)c4cccc(C#N)c4)CC3)cc2)cc1`, the inhibition entry in test [1] and in test [2] was “inactive” throughout.

`Cc1cc(Cl)ccc1NC(=O)CCc1ccc(S(=O)(=O)NCC(C)C)cc1`: the inhibition result in test [1] and in test [2] was “inactive” throughout.

As for `CC(=O)N1CCc2cc3nc(C)cc(C)c3cc21`, the inhibition result in test [1] and in test [2] was “inactive” each time.

Consider `COC(=O)Nc1nc2cc(C(=O)c3ccccc3)ccc2[nH]1`, for which the inhibition result in test [1] and in test [2] was “inactive” throughout.

As to `O=S(=O)(c1ccc(Cl)cc1)N1CCN(C(=S)NCc2ccco2)CC1`, the inhibition entry in test [1] and in test [2] was “inactive” throughout.

As for `N=C(N)c1ccc(-c2cc(-c3ccccc3)on2)cc1`, the inhibition result in test [1] and in test [2] was “inactive” in each case.

For the compound `CCCn1nnc(NC(=O)COc2ccc(C3CCCCC3)cc2)n1`, the inhibition entry in test [1] and in test [2] was “inactive” each time.

Consider `Cc1nn(Cc2ccccc2)c(Cl)c1C(=O)NC1CCCCCC1`, for which the inhibition result in test [1] and in test [2] was “inactive” throughout.

As for `CC1COC2(CCN(c3nc(=O)c4cc(C(F)(F)F)cc([N+](=O)[O-])c4s3)CC2)O1` (stereo not given), the inhibition entry in test [1] and in test [2] was “inactive” each time.

With `c1cc(C2=NCCN2)cc(-c2cc(-c3ccc(C4=NCCN4)cc3)no2)c1`, the inhibition result in test [1] and in test [2] was “inactive” throughout.

With `CCCc1ccc(S(=O)(=O)Nc2ccc(CN3CCN(CC4CC4)CC3)cc2)cc1`, the inhibition result in test [1] and in test [2] was “inactive” throughout.

With `CC(C)(C)n1nc(Cc2ccc(F)c(Cl)c2)c2c(N)ncnc21`, the inhibition result in test [1] and in test [2] was “inactive” in each case.

Consider `COc1ccc(-c2nc(-c3cccc(NC(=O)Cc4ccc(F)cc4)c3)no2)cc1OC`, for which the inhibition entry in test [1] and in test [2] was “inactive” in each case.

Consider `Cc1cc(C)n(-c2ccc(NC(=O)C3CCN(Cc4cnc(C)s4)CC3)cc2)n1`, for which the inhibition entry in test [1] and in test [2] was “inactive” in each case.

For `O=C(Nc1ccc(N2CCNCC2)nc1)c1oc(-c2ccccc2)nc1C(F)(F)F`, the inhibition entry in test [1] and in test [2] was “inactive” throughout.

With `CCN(CC)CCCN1CCN(C(=O)c2cccc(-c3noc(C(F)(F)F)n3)c2)CC1`, the inhibition result in test [1] and in test [2] was “inactive” in each case.

For the compound `CCOC(=O)c1noc(N)c1-c1ccccc1`, the inhibition result in test [1] and in test [2] was “inactive” throughout.

`COc1ccc(N(CCc2cccc(C)n2)C(C)=O)cc1`: the inhibition result in test [1] and in test [2] was “inactive” in each case.

With `COc1cc(-c2cc(-c3ccc(S(C)(=O)=O)cc3)cnc2N)ccc1O`, the inhibition result in test [1] and in test [2] was “inactive” each time.

As to `O=C(c1ccc(F)cc1)N(CCNc1ccccc1)c1ccccc1`, the inhibition result in test [1] and in test [2] was “inactive” in each case.

Take `COc1cc(C2=NCCN2)ccc1-c1cn(-c2cccc(C3=NCCN3)c2)nn1`: the inhibition result in test [1] and in test [2] was “inactive” throughout.

For the compound `CCOc1ccc(-c2nc(NC(=O)CS(=O)(=O)c3ccccc3)sc2C)cc1`, the inhibition entry in test [1] and in test [2] was “inactive” throughout.

Consider `COc1ccc2nccc(NC(=O)C3CCN(CCc4ccc(Cl)cc4)CC3)c2n1`, for which the inhibition entry in test [1] and in test [2] was “inactive” each time.

On to `CN1CCN(c2cc(-c3ccc(F)cc3)nc(-c3ccncc3)n2)CC1`, for which the inhibition result in test [1] and in test [2] was “inactive” each time.

Regarding `CCN(CC)CCCCCCNc1cc(OC)cc2c(C)ccnc12`, the inhibition result in test [1] and in test [2] was “inactive” in each case.

`NC(=O)c1cc(-c2ccsc2)ccc1OCCOc1ccccc1`: the inhibition entry in test [1] and in test [2] was “inactive” each time.

As to `Cc1cc(Nc2ccc(C(F)(F)F)cc2)n2ccnc2n1`, the inhibition entry in test [1] and in test [2] was “inactive” throughout.

For the compound `N#CCN(CCCCN1CCN(c2ccc(F)cc2)CC1)C(=O)OCc1ccccc1`, the inhibition result in test [1] and in test [2] was “inactive” each time.

As for `CC(=O)NC[C@@H]1CN(c2ccc(N3CCOCC3)c(F)c2)C(=O)O1`, the inhibition result in test [1] and in test [2] was “inactive” each time.

Take `COCC(C)NC(=O)CSc1ncnc2sc(-c3ccccc3)cc12` (stereo not given): the inhibition entry in test [1] and in test [2] was “inactive” in each case.

Regarding `O=C(c1cc2ccccc2o1)N1CCN(Cc2ccc3c(c2)OCO3)CC1`, the inhibition entry in test [1] and in test [2] was “inactive” each time.

On to `Cc1nn(C)c(C)c1NS(=O)(=O)c1c(Cl)cc(-c2ccnc(N3CCNCC3)c2)cc1Cl`, for which the inhibition entry in test [1] and in test [2] was “inactive” throughout.

With `COc1cc(NC(=O)Cc2nn(C)c(=O)c3ccccc23)ccc1Cl`, the inhibition entry in test [1] and in test [2] was “inactive” throughout.

Turning to `Nc1nccc2ccc(-c3ccc4nccn4c3)cc12`, the inhibition result in test [1] and in test [2] was “inactive” in each case.

With `CNC(=O)CNc1nc(-c2ccccn2)nc2scc(-c3ccccc3)c12`, the inhibition result in test [1] and in test [2] was “inactive” in each case.

`Cc1noc(C)c1C(=O)N1CCCC(c2[nH]c3c(C)cccc3c2-c2ccncc2)C1` (stereo not given): the inhibition result in test [1] and in test [2] was “inactive” in each case.

For the compound `Clc1ccc(-n2cc(COc3ccnc4ccccc34)nn2)cc1`, the inhibition entry in test [1] and in test [2] was “inactive” each time.

As for `Cc1ccc(C(=O)Nc2ccc(S(=O)(=O)O)c3cc(S(=O)(=O)O)cc(S(=O)(=O)O)c23)cc1NC(=O)c1cccc(NC(=O)Nc2cccc(C(=O)Nc3cc(C(=O)Nc4ccc(S(=O)(=O)O)c5cc(S(=O)(=O)O)cc(S(=O)(=O)O)c45)ccc3C)c2)c1`, the inhibition result in test [1] and in test [2] was “inactive” each time.

In the case of `Clc1ccc(CN2CCN(C3=NCCN3)CC2)cc1Cl`, the inhibition entry in test [1] and in test [2] was “inactive” each time.

Consider `Cc1cnc(N2CCN[C@@H](Cc3ccccc3)C2)nc1Oc1ccc(-n2ccnc2)cc1`, for which the inhibition result in test [1] and in test [2] was “inactive” each time.

On to `C[C@H](C(N)=O)N1CCCC[C@@H]1c1ccc(OCc2cccc(F)c2)cc1`, for which the inhibition result in test [1] and in test [2] was “inactive” throughout.

For the compound `N#Cc1nc(-c2ccccc2F)oc1NCCc1ccccc1`, the inhibition result in test [1] and in test [2] was “inactive” in each case.

As to `N=C(N)Nc1ccc(-c2ccc(-c3ccc(N=C(N)N)c(Cl)c3)o2)cc1Cl`, the inhibition result in test [1] and in test [2] was “inactive” each time.

In the case of `CCN(CC)S(=O)(=O)c1ccc(Cl)c(C(=O)Nc2ccc3nc(C)sc3c2)c1`, the inhibition entry in test [1] and in test [2] was “inactive” each time.

As for `Nc1ncc(Br)cc1-c1nc2cc(Cl)cnc2[nH]1`, the inhibition entry in test [1] and in test [2] was “inactive” in each case.

Turning to `Brc1cncc(-c2cc(NCCCn3ccnc3)nc(-c3ccccc3)n2)c1`, the inhibition entry in test [1] and in test [2] was “inactive” throughout.

Regarding `Cc1nn2c(=O)c3c([nH]c2c1-c1ccc(Cl)cc1)CCCC3`, the inhibition result in test [1] and in test [2] was “inactive” each time.

On to `Nc1ncc(-c2cn[nH]c2)cc1-c1nc2cc(Cl)cnc2[nH]1`, for which the inhibition entry in test [1] and in test [2] was “inactive” each time.

Take `CN1CCN(S(=O)(=O)c2ccc(-c3ccc4c(Nc5ncc(Cl)cn5)ccnc4c3)cc2)CC1`: the inhibition result in test [1] and in test [2] was “inactive” in each case.

As for `CS(=O)(=O)N1CCC(Cn2nc(Cc3cccc4ccccc34)c3c(N)ncnc32)CC1`, the inhibition result in test [1] and in test [2] was “inactive” throughout.

Turning to `Cc1cc(C)cc(COc2ccc3c(C)c(CCC(=O)O)c(=O)oc3c2C)c1`, the inhibition entry in test [1] and in test [2] was “inactive” each time.

In the case of `CC(C)C(Oc1cccc2ccccc12)C(=O)O` (stereo not given), the inhibition result in test [1] and in test [2] was “inactive” each time.

On to `CNc1snc(C)c1C(=O)NCCOc1ccc(OC)cc1`, for which the inhibition result in test [1] and in test [2] was “inactive” throughout.
